Experimental data reported in publication PMC6677754, “In silico design and optimization of selective membranolytic anticancer peptides” (Scientific Reports, 2019).
Where two headings read alike, the source gives them in different places. Peptide text beside a SMILES is read from it.

What was measured:
Assay type in all cases: cell-based, human
Colon cancer cell lines = assay: NCI-60 screening, average of cancer type; details: for log GI50: Table 5, Colon, averaged over cell lines, 48 h, sulforhodamine B, 10^-4 to 10^-8 M; for Log GI (M): Table S3, Colon, averaged activity for the cancer type, log GI50
Method: (§1) NCI-60 screening procedure
(§2) The NCI-60 screening procedure was performed by the Developmental Therapeutics Program of the National Cancer Institute. The procedure was performed as previously described24 in 96-well microtiter plates. Each peptide was tested in a 5-concentration assay, starting at 10^-4 M and diluting 10-fold to the lowest 10^-8 M concentration. The peptides were incubated for 48 h and the cell concentration was assayed by using the sulforhodamine B assay25 and optical density measurements. The growth inhibition (GI50) value24, measures the growth inhibitory power of the drug agent. The GI50 value is the concentration of the test drug for which the condition in Eq. S1 is met, where T is the optical density of the test well after a 48-h exposure to the peptide, T0 the optical density before applying the peptide drug and C the control optical density of a well where no peptide was applied.

Melanoma cell lines = assay: NCI-60 screening, average of cancer type; details: for log GI50: Table 5, Melanoma, averaged over cell lines, 48 h, sulforhodamine B, 10^-4 to 10^-8 M; for Log GI (M): Table S3, Melanoma, averaged activity for the cancer type, log GI50
Method: as §1, §2

[1] = test system: Ovarian cancer cell lines; assay: NCI-60 screening, average of cancer type; details: for log GI50: Table 5, Ovarian, averaged over cell lines, 48 h, sulforhodamine B, 10^-4 to 10^-8 M; for Log GI (M): Table S3, Ovarian, averaged activity for the cancer type, log GI50
Method: as §1, §2

Renal cancer cell lines = assay: NCI-60 screening, average of cancer type; details: for log GI50: Table 5, Renal, averaged over cell lines, 48 h, sulforhodamine B, 10^-4 to 10^-8 M; for Log GI (M): Table S3, Renal, averaged activity for the cancer type, log GI50
Method: as §1, §2

Leukemia cell lines = assay: NCI-60 screening, average of cancer type; details: for log GI50: Table 5, Leukemia, averaged over cell lines, 48 h, sulforhodamine B, 10^-4 to 10^-8 M; for Log GI (M): Table S3, Leukemia, averaged activity for the cancer type, log GI50
Method: as §1, §2

Breast cancer cell lines = assay: NCI-60 screening, average of cancer type; details: for log GI50: Table 5, Breast, averaged over cell lines, 48 h, sulforhodamine B, 10^-4 to 10^-8 M; for Log GI (M): Table S3, Breast, averaged activity for the cancer type, log GI50
Method: as §1, §2

CNS cancer cell lines = assay: NCI-60 screening, average of cancer type; details: for log GI50: Table 5, CNS, averaged over cell lines, 48 h, sulforhodamine B, 10^-4 to 10^-8 M; for Log GI (M): Table S3, CNS, averaged activity for the cancer type, log GI50
Method: as §1, §2

Lung cancer cell lines = assay: NCI-60 screening, average of cancer type; details: for log GI50: Table 5, Lung, averaged over cell lines, 48 h, sulforhodamine B, 10^-4 to 10^-8 M; for Log GI (M): Table S3, Lung, averaged activity for the cancer type, log GI50
Method: as §1, §2

[2] = test system: Prostate cancer cell lines; assay: NCI-60 screening, average of cancer type; details: for log GI50: Table 5, Prostate, averaged over cell lines, 48 h, sulforhodamine B, 10^-4 to 10^-8 M; for Log GI (M): Table S3, Prostate, averaged activity for the cancer type, log GI50
Method: as §1, §2

SNB-19 = assay: NCI-60 screening; details: SNB-19 (CNS); log GI50; 48 h, sulforhodamine B, 10^-4 to 10^-8 M
Method: as §1, §2

SF-539 = assay: NCI-60 screening; details: SF-539 (CNS); log GI50; 48 h, sulforhodamine B, 10^-4 to 10^-8 M
Method: as §1, §2

DU-145 = assay: NCI-60 screening; details: DU-145 (Prostate); log GI50; 48 h, sulforhodamine B, 10^-4 to 10^-8 M
Method: as §1, §2

KM12 = assay: NCI-60 screening; details: KM12 (Colon); log GI50; 48 h, sulforhodamine B, 10^-4 to 10^-8 M
Method: as §1, §2

IGVROV1 = assay: NCI-60 screening; details: IGVROV1 (Ovarian); log GI50; 48 h, sulforhodamine B, 10^-4 to 10^-8 M
Method: as §1, §2

[3] = test system: A549 lung adenocarcinoma cell line; assay: Cell viability assay (MTT); details: MTT
In short: (§3)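 Viability by MTT: 10^4 cells/well exposed 24 h to 2-fold peptide dilutions from 100 μM in DMEM, then 1 h with 0.5 mg mL−1 MTT; absorbance at 540 nm relative to peptide-free medium as 100% survival. EC50 from a 3-parameter log-logistic fit.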

[4] = test system: MCF7 breast adenocarcinoma cell line; assay: Cell viability assay (MTT)
In short: as §3

Row | SMILES | log GI50 (Colon cancer cell lines) [M] | Log GI (M) (Colon cancer cell lines) | log GI50 (Melanoma cell lines) [M] | Log GI (M) (Melanoma cell lines) | log GI50 [1] [M] | Log GI (M) [1] [M] | log GI50 (Renal cancer cell lines) [M] | Log GI (M) (Renal cancer cell lines) | log GI50 (Leukemia cell lines) [M] | Log GI (M) (Leukemia cell lines) | log GI50 (Breast cancer cell lines) [M] | Log GI (M) (Breast cancer cell lines) | log GI50 (CNS cancer cell lines) [M] | Log GI (M) (CNS cancer cell lines) | log GI50 (Lung cancer cell lines) [M] | Log GI (M) (Lung cancer cell lines) | log GI50 [2] [M] | Log GI (M) [2] [M] | Log GI (M) (SNB-19) | Log GI (M) (SF-539) | also measured
1 | CC[C@H](C)[C@H](NC(=O)[C@H](CCCCN)NC(=O)[C@H](CCCCN)NC(=O)[C@@H](NC(=O)[C@@H](NC(=O)[C@@H](N)Cc1c[nH]cn1)[C@@H](C)CC)[C@@H](C)CC)C(=O)N[C@@H](CCCNC(=N)N)C(=O)N[C@H](C(=O)N[C@@H](Cc1c[nH]c2ccccc12)C(=O)N[C@@H](Cc1ccc(O)cc1)C(=O)N[C@@H](CCCNC(=N)N)C(=O)N[C@@H](CCCCN)C(=O)N[C@@H](C)C(=O)N[C@@H](Cc1c[nH]c2ccccc12)C(=O)N[C@@H](Cc1c[nH]cn1)C(=O)N[C@H](C(=O)N[C@@H](CC(C)C)C(=O)NCC(=O)N[C@@H](CCCCN)C(=O)N[C@H](C(N)=O)C(C)C)C(C)C)[C@@H](C)O [Off2] (H-HIIKKIRTWYRKAWHVLGKV-NH2) | −5.2 | -5.24 | −5.3 | -5.33 | −5.2 | -5.17 | −5.3 | -5.28 | −5.2 | -5.17 | −5.4 | -5.36 | −5.2 | -5.21 | −5.4 | -5.37 | −5.5 | -5.46 | -4.74 | -5.67 | Log GI (M) (DU-145): -5.37 M; Log GI (M) (KM12): -5.60 M; Log GI (M) (IGVROV1): -5.36 M; EC50 ([3]; Table S2, 24 h, mean ± sd, N = 2 independent measurements with six technical replicates each (Figs S6-S8), read-out: A549 EC50 /µM): 17 ± 0.6 µM; EC50 ([4]; Table S2, 24 h, mean ± sd, N = 2 independent measurements with six technical replicates each (Figs S6-S8)): 10 ± 2 µM
2 | CC[C@H](C)[C@H](NC(=O)[C@H](CCCNC(=N)N)NC(=O)[C@H](Cc1c[nH]c2ccccc12)NC(=O)[C@@H](NC(=O)[C@H](CCCCN)NC(=O)[C@H](CCCCN)NC(=O)[C@@H](NC(=O)[C@@H](NC(=O)[C@@H](NC(=O)[C@H](CCCCN)NC(=O)[C@H](Cc1ccccc1)NC(=O)[C@H](CCCCN)NC(=O)[C@H](CCCCN)NC(=O)[C@H](Cc1ccccc1)NC(=O)[C@@H](NC(=O)[C@@H](N)CCCCN)[C@@H](C)CC)[C@@H](C)O)[C@@H](C)CC)[C@@H](C)CC)C(C)C)C(=O)N[C@@H](Cc1ccccc1)C(=O)NCC(=O)N[C@@H](CCCNC(=N)N)C(=O)N[C@@H](Cc1ccccc1)C(N)=O [AmphiArc2] (H-KIFKKFKTIIKKVWRIFGRF-NH2) | −5.6 | -5.57 | −5.6 | -5.64 | −5.6 | -5.60 | −5.7 | -5.67 | −5.5 | -5.50 | −5.6 | -5.65 | −5.6 | -5.63 | −5.6 | -5.65 | −5.7 | -5.72 | -5.58 | -5.72 | Log GI (M) (DU-145): -5.77 M; Log GI (M) (KM12): -5.63 M; Log GI (M) (IGVROV1): -5.68 M; EC50 ([3]; 10^4 cells per well, 24 h with peptide, 2-fold dilution series from 100 µM in DMEM, absorbance 540 nm, mean ± std, N = 3, read-out: A549 EC50/µM): 9.3 ± 1.5 µM; EC50 ([4]; 10^4 cells per well, 24 h with peptide, 2-fold dilution series from 100 µM in DMEM, absorbance 540 nm, mean ± std, N = 3): 5.7 ± 0.7 µM
